≈ marks a conversion by molar mass, not a printed value.
Columns and labels:
Cryptococcus neoformans = assay: Antifungal activity against Cryptococcus neoformans 2867E strain; type: functional
Candida albicans = assay: Antifungal activity against Candida albicans C316 strain; type: functional
Aspergillus niger = assay: Tested for the whole cell antifungal activity against Aspergillus niger 48238 strain; type: functional
Squalene synthase = molecular target: T1, Squalene synthase (Rattus norvegicus, UniProt Q02769); assay: Inhibition of rat liver squalene synthase(SQS)
T1 sequence (Q02769 whole entry): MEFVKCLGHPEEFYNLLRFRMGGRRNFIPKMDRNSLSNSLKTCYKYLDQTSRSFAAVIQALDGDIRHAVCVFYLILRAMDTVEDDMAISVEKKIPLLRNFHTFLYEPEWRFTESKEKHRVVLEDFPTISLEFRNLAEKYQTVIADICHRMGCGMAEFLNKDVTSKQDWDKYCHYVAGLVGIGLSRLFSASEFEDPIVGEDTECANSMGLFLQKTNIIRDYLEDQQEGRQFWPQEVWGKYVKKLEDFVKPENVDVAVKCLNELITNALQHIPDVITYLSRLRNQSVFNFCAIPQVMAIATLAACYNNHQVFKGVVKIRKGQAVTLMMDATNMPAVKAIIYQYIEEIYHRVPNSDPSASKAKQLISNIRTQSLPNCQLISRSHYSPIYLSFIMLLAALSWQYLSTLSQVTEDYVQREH

Row | SMILES | MIC (Cryptococcus neoformans) [µg/mL] | MIC (Candida albicans) [µg/mL] | MIC (Aspergillus niger) [µg/mL] | IC50 (Squalene synthase) [nM]
1 | C=C(CC[C@]12O[C@H](C(=O)O)[C@@](O)(C(=O)O)[C@](C(=O)O)(O1)[C@H](OC(=O)CCCC)[C@H]2O)[C@@H](OC(C)=O)[C@H](C)Cc1ccccc1 | > 125 | > 125 | > 125 | –
2 | C=C(CC[C@]12O[C@H](C(=O)O)[C@@](O)(C(=O)O)[C@](C(=O)O)(O1)[C@H](OC(=O)OC)[C@H]2O)[C@@H](OC(C)=O)[C@H](C)Cc1ccccc1 | > 125 | > 125 | > 125 | 3
3 | C=C(CC[C@]12O[C@H](C(=O)O)[C@@](O)(C(=O)O)[C@](C(=O)O)(O1)[C@H](O)[C@H]2OC(=O)CCCCCCC)[C@@H](OC(C)=O)[C@H](C)Cc1ccccc1 | > 125 | > 125 | > 125 | > 500
4 | C=C(CC[C@]12O[C@H](C(=O)O)[C@@](O)(C(=O)O)[C@](C(=O)O)(O1)[C@H](OC(=O)C1CCCCC1)[C@H]2O)[C@@H](OC(C)=O)[C@H](C)Cc1ccccc1 | 31 (≈ 47.8 µM) | > 62 | > 62 | 17
5 | C=C(CC[C@]12O[C@H](C(=O)O)[C@@](O)(C(=O)O)[C@](C(=O)O)(O1)[C@H](OC(C)=O)[C@H]2O)[C@@H](OC(C)=O)[C@H](C)Cc1ccccc1 | > 125 | > 125 | > 125 | 2
6 | C=C(CC[C@]12O[C@H](C(=O)O)[C@@](O)(C(=O)O)[C@](C(=O)O)(O1)[C@H](OC(=O)/C=C/[C@@H](C)C[C@@H](C)CC)[C@H]2OC(C)=O)[C@@H](OC(C)=O)[C@H](C)Cc1ccccc1 | 1 (≈ 1.36 µM) | > 125 | 8 (≈ 10.9 µM) | 10
7 | C=C(CC[C@]12O[C@H](C(=O)O)[C@@](O)(C(=O)O)[C@](C(=O)O)(O1)[C@H](OC(=O)CCCCCCc1ccccc1)[C@H]2O)[C@@H](OC(C)=O)[C@H](C)Cc1ccccc1 | 2 (≈ 2.75 µM) | 125 (≈ 172 µM) | 62 (≈ 85.3 µM) | 9
8 | C=C(CC[C@]12O[C@H](C(=O)O)[C@@](O)(C(=O)O)[C@](C(=O)O)(O1)[C@H](OC(=O)OCCCC)[C@H]2O)[C@@H](OC(C)=O)[C@H](C)Cc1ccccc1 | > 125 | > 125 | > 125 | 4
9 | C=C(CC[C@]12O[C@H](C(=O)O)[C@@](O)(C(=O)O)[C@](C(=O)O)(O1)[C@H](OC(=O)CCCCCCC)[C@H]2O)[C@@H](OC(C)=O)[C@H](C)Cc1ccccc1 | 1 (≈ 1.5 µM) | 31 (≈ 46.6 µM) | 8 (≈ 12 µM) | 3
10 | C=C(CC[C@]12O[C@H](C(=O)O)[C@@](O)(C(=O)O)[C@](C(=O)O)(O1)[C@H](OC(=O)CCC)[C@H]2OC(=O)CCC)[C@@H](OC(C)=O)[C@H](C)Cc1ccccc1 | > 125 | > 125 | > 125 | –
11 | C=C(CC[C@]12O[C@H](C(=O)O)[C@@](O)(C(=O)O)[C@](C(=O)O)(O1)[C@H](OC(=O)CCCCCCCCC)[C@H]2O)[C@@H](OC(C)=O)[C@H](C)Cc1ccccc1 | 2 (≈ 2.89 µM) | 16 (≈ 23.1 µM) | 2 (≈ 2.89 µM) | 8
12 | C=C(CC[C@]12O[C@H](C(=O)O)[C@@](O)(C(=O)O)[C@](C(=O)O)(O1)[C@H](OC(=O)/C=C/c1ccccc1)[C@H]2O)[C@@H](OC(C)=O)[C@H](C)Cc1ccccc1 | 31 (≈ 46.4 µM) | > 125 | > 125 | 4
13 | C=C(CC[C@]12O[C@H](C(=O)O)[C@@](O)(C(=O)O)[C@](C(=O)O)(O1)[C@H](OC(=O)CC1CCCCC1)[C@H]2O)[C@@H](OC(C)=O)[C@H](C)Cc1ccccc1 | 2 (≈ 3.02 µM) | 62 (≈ 93.6 µM) | 62 (≈ 93.6 µM) | –
14 | C=C(CC[C@]12O[C@H](C(=O)O)[C@@](O)(C(=O)O)[C@](C(=O)O)(O1)[C@H](O)[C@H]2O)[C@@H](OC(C)=O)[C@H](C)Cc1ccccc1 | > 125 | > 125 | > 125 | –
15 | C=C(CC[C@]12O[C@H](C(=O)O)[C@@](O)(C(=O)O)[C@](C(=O)O)(O1)[C@H](OC(=O)CCCCCCC)[C@H]2OC(=O)CCCCCCC)[C@@H](OC(C)=O)[C@H](C)Cc1ccccc1 | > 125 | > 125 | > 125 | 280
16 | C=C(CC[C@]12O[C@H](C(=O)O)[C@@](O)(C(=O)O)[C@](C(=O)O)(O1)[C@H](OC(=O)c1ccccc1)[C@H]2O)[C@@H](OC(C)=O)[C@H](C)Cc1ccccc1 | > 125 | > 125 | > 125 | 8
17 | C=C(CC[C@]12O[C@H](C(=O)O)[C@@](O)(C(=O)O)[C@](C(=O)O)(O1)[C@H](O)[C@H]2OC(=O)CCCCCCCCC)[C@@H](OC(C)=O)[C@H](C)Cc1ccccc1 | > 125 | > 125 | > 125 | 303
18 | C=C(CC[C@]12O[C@H](C(=O)O)[C@@](O)(C(=O)O)[C@](C(=O)O)(O1)[C@H](O)[C@H]2OC(C)=O)[C@@H](OC(C)=O)[C@H](C)Cc1ccccc1 | – | > 125 | > 125 | –
19 | C=C(CC[C@]12O[C@H](C(=O)O)[C@@](O)(C(=O)O)[C@](C(=O)O)(O1)[C@H](OC(=O)/C=C/[C@@H](C)C[C@@H](C)CC)[C@H]2OC(=O)CCCCCCC)[C@@H](OC(C)=O)[C@H](C)Cc1ccccc1 | > 32 | > 32 | > 32 | –
20 | C=C(CC[C@]12O[C@H](C(=O)O)[C@@](O)(C(=O)O)[C@](C(=O)O)(O1)[C@H](OC(=O)OCCCCCCCCC)[C@H]2O)[C@@H](OC(C)=O)[C@H](C)Cc1ccccc1 | 0.06 (≈ 0.0847 µM) | 1 (≈ 1.41 µM) | 0.25 (≈ 0.353 µM) | 7
21 | C=C(CC[C@]12O[C@H](C(=O)O)[C@@](O)(C(=O)O)[C@](C(=O)O)(O1)[C@H](O)[C@H]2OC(=O)OC)[C@@H](OC(C)=O)[C@H](C)Cc1ccccc1 | > 125 | > 125 | > 125 | 380
22 | C=C(CC[C@]12O[C@H](C(=O)O)[C@@](O)(C(=O)O)[C@](C(=O)O)(O1)[C@H](OC(C)=O)[C@H]2OC(C)=O)[C@@H](OC(C)=O)[C@H](C)Cc1ccccc1 | – | > 125 | > 125 | –
23 | C=C(CC[C@]12O[C@H](C(=O)O)[C@@](O)(C(=O)O)[C@](C(=O)O)(O1)[C@H](OC(=O)/C=C/[C@@H](C)C[C@@H](C)CC)[C@H]2OC(=O)OC)[C@@H](OC(C)=O)[C@H](C)Cc1ccccc1 | > 125 | 125 (≈ 167 µM) | > 125 | 15
24 | C=C(CC[C@]12O[C@H](C(=O)O)[C@@](O)(C(=O)O)[C@](C(=O)O)(O1)[C@H](OC(=O)/C=C/[C@@H](C)C[C@@H](C)CC)[C@H]2O)[C@@H](OC(C)=O)[C@H](C)Cc1ccccc1 [ZARAGOZIC ACIDS A] | 0.5 (≈ 0.724 µM) | 8 (≈ 11.6 µM) | 16 (≈ 23.2 µM) | –

— ChEMBL document CHEMBL1151052, “Semi-synthetic qualestatins: Squalene synthase inhibition and antifungal activity. The SAR of C6 and C7 modifications” (Bioorg Med Chem Lett, 1993)
